One may read the logD as lipophilicity at a set pH, counting ionised and neutral species. Read a high logD as a more lipophilic compound. As usually defined, the fraction unbound is the share of the substance not bound to proteins or other matrix.

The record followed here is ChEMBL document CHEMBL2384932, “Radiosynthesis and evaluation of [11C]EMPA as a potential PET tracer for orexin 2 receptors” (Bioorg Med Chem Lett, 2013).

Some results are limits rather than exact numbers.

Data set [1] is described as follows: Ratio of drug level in brain to plasma of ip dosed mouse after 45 mins. The data set is classed as ADME, organism-based. The note with it: read-out: BPR.
Data set [2] addresses T1, Orexin receptor type 2 (Rattus norvegicus) (UniProt P56719).
T1 sequence (whole entry): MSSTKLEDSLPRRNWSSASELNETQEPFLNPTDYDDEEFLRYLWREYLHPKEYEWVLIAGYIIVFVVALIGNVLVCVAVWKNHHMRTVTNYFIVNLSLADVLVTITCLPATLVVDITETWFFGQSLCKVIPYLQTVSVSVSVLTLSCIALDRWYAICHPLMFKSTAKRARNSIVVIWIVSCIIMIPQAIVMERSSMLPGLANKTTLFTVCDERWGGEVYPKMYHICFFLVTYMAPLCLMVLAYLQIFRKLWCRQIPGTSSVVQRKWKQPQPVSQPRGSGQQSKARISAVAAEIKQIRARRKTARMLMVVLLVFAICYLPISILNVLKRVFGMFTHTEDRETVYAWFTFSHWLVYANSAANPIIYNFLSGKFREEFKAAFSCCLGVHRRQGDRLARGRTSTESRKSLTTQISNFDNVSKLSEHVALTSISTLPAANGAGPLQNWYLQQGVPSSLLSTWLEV
Nature of the data set: Binding affinity to rat brain OX2 receptor assessed per mg of protein.

In data set [3] the test system is Brain. Nature of the data set: Drug uptake in baboon brain at 4.49 mCi after 80 mins by PET-MR imaging analysis. The data set is classed as ADME. The conditions noted are these: papio anubis, in vivo.
Data set [4] deals with Liver. The data set can be described thus: Drug uptake in Sprague-Dawley rat liver at 1.0 to 1.2 mCi, iv after 90 mins by PET-CT scan in presence of non radiolabeled ligand EMPA. The note with it: in vivo, 1.5 h. The data set is classed as ADME, organism-based.
The nature of data set [5]: Lipophilicity, log D of the compound in phosphate buffer at ph 7.4. The data set is classed as physicochemical.
Data set [6] can be described thus: Fraction unbound in baboon plasma after 10 mins. Type of data set: ADME, cell-free. The note with it: papio anubis.
Data set [7] is described as follows: Drug uptake in baboon blood at 4.49 mCi by PET-MR imaging analysis. Type of data set: ADME. The conditions noted are these: papio anubis.
Data set [8] concerns Brain. Nature of the data set: Drug uptake in Sprague-Dawley rat brain at 1.0 to 1.2 mCi, iv after 60 mins by PET-CT scan in presence of non radiolabeled ligand EMPA. The data set is classed as ADME, organism-based. The note with it: in vivo, 1 h.
For data set [9], the system named is Kidney. Nature of the data set: Drug uptake in Sprague-Dawley rat kidney at 1.0 to 1.2 mCi, iv after 90 mins by PET-CT scan in presence of non radiolabeled ligand EMPA. The data set is classed as ADME, organism-based. The note with it: in vivo, 1.5 h.

As for `[3H]c1ccc(CN(CC)C(=O)CN(c2ccc(OC([3H])([3H])[3H])nc2)S(=O)(=O)c2ccccc2C)cn1`, the Kp at 0.75 h in data set [1] was found to be 0.7.

With `CCN(Cc1cccnc1)C(=O)CN(c1ccc(OC)nc1)S(=O)(=O)c1ccccc1C`, the Bmax in data set [2] is 6.62 pmol.

Turning to `CCN(Cc1cccnc1)C(=O)CN(c1ccc(O[11CH3])nc1)S(=O)(=O)c1ccccc1C`, the Drug uptake is < 0.01% in data set [3]; “Active” in data set [4]; “Active” in data set [7]; < 0.1% in [8]; “Active” in [9]. Besides, the logD in data set [5] was found to be 1.94. Further, the fraction unbound at 10 min in [6] is 0.113.
